This is an account of results in paper PMC8566969, “Comparison of viral RNA–host protein interactomes across pathogenic RNA viruses informs rapid antiviral drug discovery for SARS-CoV-2” (Cell Research, 2021).

Data set [1] concerns SARS-CoV-2 B.1.351 variant.
Data set [2] concerns SARS-CoV-2 B.1.351 variant. In words: microbe, parasite or virus in culture. The following applies: Severe acute respiratory syndrome coronavirus 2, A549-ACE2, 48 h, read-out: IC50, SARS-CoV-2 B.1.351.
For data set [3], the system named is SARS-CoV-2 B.1.351 variant. In words: microbe, parasite or virus in culture. The class given is cell-based. The following applies: Severe acute respiratory syndrome coronavirus 2, Huh-7.5.1, 48 h, read-out: IC50, SARS-CoV-2 B.1.351 in Huh7.5.1 cells.

Like-named read-outs stand apart in the source and are kept apart here.

Take `COc1ccc2cc1Oc1ccc(cc1)C[C@H]1c3c(cc4c(c3Oc3cc5c(cc3OC)CCN(C)[C@@H]5C2)OCO4)CCN1C` [Cepharanthine]: the “Inhibitory effect in B.1.351-infected cells (in words)” value in data set [1] is listed as “exerted inhibitory effects”. Also, in data set [1], the “SI (CC50/IC50), SARS-CoV-2 B.1.351” value is recorded as 128.83. Moreover, the results for the IC50 in data set [2] and in data set [3] were 240 nM and 60 nM, respectively.
Regarding `CNC(=O)c1cc(Oc2ccc(NC(=O)Nc3ccc(Cl)c(C(F)(F)F)c3)cc2)ccn1` [Sorafenib], in data set [1], the “Inhibitory effect in B.1.351-infected cells (in words)” value is given as “exerted inhibitory effects” and the “SI (CC50/IC50), SARS-CoV-2 B.1.351” value is reported as 7.6. The IC50 in data set [2] was found to be 1700 nM.
For `COc1cc2c(cc1OC)[C@@H]1C(=O)c3ccc4c(c3O[C@@H]1CO2)C=CC(C)(C)O4` [Deguelin], in that order: “exerted inhibitory effects”, 7.44 and 4670 nM.
For `CN1CCN(CCCN2c3ccccc3Sc3ccc(C(F)(F)F)cc32)CC1` [Trifluoperazine], in that order: “exerted inhibitory effects”, 13.25 and 2790 nM.

What is called IC50 is the midpoint of a concentration-inhibition curve.
